Data as given in patent US20050282818A1, “Ubiquitin ligase inhibitors” (Rigel Pharmaceuticals, Inc., priority 2004, published 2005).

Assays:
[1] = system: OVCAR8 cells; assay: Cell proliferation PAD assay, OVCAR8; type: cell-based; conditions: Homo sapiens, OVCAR-8, 6pt, 48 hours
Method: (§1) Cell lines used are available from American Type Culture Collection (ATCC), for example, cell cultures containing A549 (ATCC# CCL-185), HeLa (ATCC# CCL-2), HCT116 ATTC# CCL-247), and H1299 (ATCC# CRL-5803) cells were maintained in T175 flasks following the ATCC recommended media and handling procedures. […] A 20,000 cells/ml solution was made for plating. Cells were plated in black Packard 96 well plates by placing 100 μl per well (2,000 cells per well). […] The definitions of the cell types used are as follows: A549 is lung carcinoma; HI 299 is non-small cell lung carcinoma; HI 155 is non-small cell lung carcinoma; AsPC-1 is pancreatic adenocarcinoma; Caov-3 is ovarian adenocarcinoma; COLO 205 is colorectal adenocarcinoma; DLD-1 colorectal adenocarcinoma; HCT116 is colorectal carcinoma; DU 145 is prostate carcinoma; ES-2 is ovarian clear cell carcinoma; H460 is large cell lung carcinoma; HELA is cervical adenocarcinoma; MIA PaCa-2 is pancreatice carcinoma; OVCAR-3 is ovarian adenocarcinoma; OVCAR8 is ovarian carcinoma; PC3 is prostate adenocarcinoma; SK-OV-3 is ovarian adenocarcinoma; SU86.86 is pancreatic carcinoma; TOV-21G is avarian clear cell carcinoma; U2OS is bone osteosarcoma; is ASPC-I is pancreatic adenocarcinoma; BXPC-3 is pabcreatic adenocarcinoma; HL60 is promyeloblast promyelocytic leukemia; K562 is bone marrow chronic myelogenous leukemia; L1210 is mouse lymphocytic leukemia; MOLT3 is T lymphoblast acute lymphoblastic leukemia; MOLT4 is T lymphoblast acute lymphoblastic leukemia; SW620 is colorectal adenocarcinoma; THP-1 is monocyte acute monocytic leukemia; U937 is histiocytic lymphoma; and UACC-257 is melanoma.
(§2) Compounds and additional media were added 24 hours after cell plating. […] All compound testing was done in duplicate using 6.3 fold dilutions starting with 10 mM. […] Taxol and at least one additional control were run on all plates. Three microliters of the compound master plate were added to deep well blocks containing 750 μl of RPMI media. One hundred microliters were transferred from the compound/media deep well blocks to the plated cells resulting in a 500 fold dilution of the compounds. Cells were grown at 37° C., 5% CO2 for 48 hours.
(§3) Cells to be analyzed by photography were fixed and stained. One hundred microliters of media were removed and 100 μl of 9.3% formamide was added to each well. Plates were left on the benchtop for 45 minutes. A staining solution containing 1.55 μl of 1 mg/ml DAPI added to 18.75 ml PBS was warmed for 15 minutes at 37° C. The cells were aspirated prior to washing with 100 μl of PBS. Seventy microliters of PBS were aspirated and 170 μl of the DAPI solution were added to each well of fixed cells. Plates were left at room temperature for one hour then aspirated and washed twice with 100 μl of PBS. The stained cells were left at 4° C. for a minimum of 16 hours before photographic analysis with Array Scan II (Cellomics). Analysis of the photographic images to determine numbers of live cells (proliferation), apoptotic cells and dead cells, were according to the methods described in U.S. Utility patent application Ser. No. 10/652,440, which incorporated herein in its entirety.

[2] = system: UACC-257 cells; assay: Cell proliferation PAD assay, UACC-257; type: cell-based; conditions: Homo sapiens, UACC257 cells, 6pt, 48 hours
Method: as §1, §2, §3

[3] = biological target: T1, ROC1/CUL1 (Homo sapiens, UniProt P62877+Q13616); assay: ROC1/CUL1 ubiquitin ligase assay (SCF assay); type: biochemical
T1 construct: made in house
Method: Inhibition of ubiquitin ligase activity of E1+E2+E3 was measured using the protocol as described in WO 01/75145 with E3 as the ROC1/CUL1, ROC1/CUL2, or ROC2/CUL5 complex.
The wells of nickel-substrate 96-well plates (Pierce Chemical) are blocked with 100 μl of 1 casein/phosphate buffered saline (PBS) for 1 hour at room temperature, then washed with 200 μl of PBST (0.1% Tween-20 in PBS) 3 times. To each well is added the following Flag-ubiquitin (see above) reaction solution: 62.5 mM Tris pH 7.5, 6.25 mm MgCl2, 0.75 mM DTT, 2.5 mM ATP, 2.5 mM NaF1, 2.5 nM Okadaic acid, 100 ng Flag-ubiquitin (made as described above).
The buffer solution is brought to a final volume of 80 μl with Milipore-filtered water, followed by the addition of 10 μl DMSO.
To the above solution is then added 10 μl of ubiquitination enzymes in 20 mM Tris buffer, pH 7.5, and 5% glycerol. E2-Ubch5c and E3-His ROC1/Cul1, ROC1/CUL2, and ROC2/CUL5 are made as described in WO 01/75145. E1 is obtained commercially (Affiniti Research Products, Exeter, U. K.). The following amounts of each enzyme are used for these assays: 5 ng/well of E1; […] E2; and 100 ng/well His-E3. Varying amounts of compounds according to the invention are added and the reaction allowed to proceed at room temperature for 1 hour.
Following the ubiquitination reaction, the wells are washed with 200 μl of PBST 3 times. For measurement of the enzyme-bound ubiquitin, 100 gel of Mouse anti-Flag (1:10,000) and anti-Mouse Ig-HRP (1:15, 000) in PBST are added to each well and allowed to incubate at room temperature for 1 hour. The wells are then washed with 200 μl of PBST 3 times, followed by the addition of 100 μl of luminol substrate (1/5 dilution). Luminescence for each well is then measured using a fluorimeter.
Table 2 below illustrates the inhibitory activity of the compounds of the invention determined by the TRAF6/Uev1A/Ubc13 assay as well as in the ICAM, APC and the ROC1/CUL1 Ubiquitin Ligase Assay (SCF Assay). The IC50 values were determined using a various concentrations of the compounds.

T1 sequence (P62877 whole entry): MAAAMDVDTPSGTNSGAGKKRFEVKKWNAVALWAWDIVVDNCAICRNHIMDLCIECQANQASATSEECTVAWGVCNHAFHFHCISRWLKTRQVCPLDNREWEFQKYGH
T1 sequence (Q13616 whole entry): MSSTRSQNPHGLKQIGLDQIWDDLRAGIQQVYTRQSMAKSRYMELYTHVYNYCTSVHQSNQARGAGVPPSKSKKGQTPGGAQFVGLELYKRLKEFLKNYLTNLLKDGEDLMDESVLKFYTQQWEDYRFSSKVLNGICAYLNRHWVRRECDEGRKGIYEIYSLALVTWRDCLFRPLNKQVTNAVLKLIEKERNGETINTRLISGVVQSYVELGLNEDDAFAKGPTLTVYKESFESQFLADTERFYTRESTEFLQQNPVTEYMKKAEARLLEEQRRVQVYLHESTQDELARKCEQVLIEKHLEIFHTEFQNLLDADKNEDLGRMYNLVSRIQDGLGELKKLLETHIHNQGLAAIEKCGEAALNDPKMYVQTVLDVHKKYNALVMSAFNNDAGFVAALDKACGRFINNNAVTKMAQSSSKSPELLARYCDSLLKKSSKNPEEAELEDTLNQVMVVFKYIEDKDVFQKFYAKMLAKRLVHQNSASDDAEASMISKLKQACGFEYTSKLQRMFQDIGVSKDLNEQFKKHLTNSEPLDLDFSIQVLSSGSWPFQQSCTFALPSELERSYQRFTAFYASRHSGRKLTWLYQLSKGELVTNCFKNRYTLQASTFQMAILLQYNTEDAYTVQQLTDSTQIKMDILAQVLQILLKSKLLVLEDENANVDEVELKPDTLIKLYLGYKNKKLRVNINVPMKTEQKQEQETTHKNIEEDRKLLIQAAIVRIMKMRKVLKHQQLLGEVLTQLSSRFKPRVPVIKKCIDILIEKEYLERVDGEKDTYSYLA

| SMILES | IC50 [1] | IC50 [2] | IC50 [3] |
| --- | --- | --- | --- |
| O=[N+]([O-])c1ccc(Sc2cccc3cccnc23)c2nonc12 [compound 5, 8-[(7-Nitro-2,1,3-benzoxadiazol-4-yl)thio]quinoline] | < 1 µM | < 1 µM | – |
| O=[N+]([O-])c1ccc(Oc2c(Cl)cc(S(=O)(=O)Nc3cccc4nsnc34)cc2Cl)c(Cl)c1 [compound 73, N-2,1,3-benzothiadiazol-4-yl-3,5-dichloro-4-(2-chloro-4-nitrophenoxy)benzenesulfonamide] | ≥ 20 µM | ≥ 20 µM | – |
| O=S(=O)(Nc1cccc2nonc12)c1ccc(Oc2ncc(C(F)(F)F)cc2Cl)cc1 [compound 78, N-2,1,3-benzoxadiazol-4-yl-4-{[3-chloro-5-(trifluoromethyl)pyridin-2-yl]oxy}benzenesulfonamide] | 1 to 20 µM | 1 to 20 µM | – |
| O=[N+]([O-])c1ccc(N2CCN(c3cc(C(F)(F)F)ccn3)CC2)c2nonc12 [compound 90, 4-nitro-7-{4-[4-(trifluoromethyl)pyridin-2-yl]piperazin-1-yl}-2,1,3-benzoxadiazole] | ≥ 20 µM | ≥ 20 µM | – |
| O=S(=O)(Nc1cccc2nsnc12)c1ccc(Oc2ccccc2)cc1 [compound 94, N-2,1,3-benzothiadiazol-4-yl-4-phenoxybenzenesulfonamide] | 1 to 20 µM | 1 to 20 µM | – |
| O=[N+]([O-])c1ccc(Oc2ccc(S(=O)(=O)Nc3cccc4nonc34)cc2Cl)c(C(F)(F)F)c1 [compound 114, N-2,1,3-benzoxadiazol-4-yl-3-chloro-4-[4-nitro-2-(trifluoromethyl)phenoxy]benzenesulfonamide] | 1 to 20 µM | 1 to 20 µM | – |
| Cc1ccc(N2CCN(c3ccc([N+](=O)[O-])c4nonc34)CC2)cc1C [compound 140, 4-[4-(3,4-dimethylphenyl)piperazin-1-yl]-7-nitro-2,1,3-benzoxadiazole] | 1 to 20 µM | 1 to 20 µM | – |
| N#CC1(c2ccccc2)CCN(c2ccc([N+](=O)[O-])c3nonc23)CC1 [compound 141, 1-(7-nitro-2,1,3-benzoxadiazol-4-yl)-4-phenylpiperidine-4-carbonitrile] | ≥ 20 µM | ≥ 20 µM | – |
| O=C(c1ccc(F)cc1)C1CCN(c2ccc([N+](=O)[O-])c3nonc23)CC1 [compound 142, (4-fluorophenyl)[1-(7-nitro-2,1,3-benzoxadiazol-4-yl)piperidin-4-yl]methanone] | 1 to 20 µM | 1 to 20 µM | – |
| CC1CC(C)CN(c2ccc([N+](=O)[O-])c3nonc23)C1 (stereo not drawn) [compound 144, 4-(3,5-dimethylpiperidin-1-yl)-7-nitro-2,1,3-benzoxadiazole] | ≥ 20 µM | ≥ 20 µM | – |
| Cc1ccc(Cl)cc1N1CCN(c2ccc([N+](=O)[O-])c3nonc23)CC1 [compound 145, 4-[4-(5-chloro-2-methylphenyl)piperazin-1-yl]-7-nitro-2,1,3-benzoxadiazole] | ≥ 20 µM | ≥ 20 µM | – |
| O=[N+]([O-])c1ccc(N2CCN(c3ccc(O)cc3)CC2)c2nonc12 [compound 146, 4-[4-(7-nitro-2,1,3-benzoxadiazol-4-yl)piperazin-1-yl]phenol] | 1 to 20 µM | 1 to 20 µM | – |
| O=[N+]([O-])c1ccc(N2CCN(c3ncccc3C(F)(F)F)CC2)c2nonc12 [compound 148, 4-nitro-7-{4-[3-(trifluoromethyl)pyridin-2-yl]piperazin-1-yl}-2,1,3-benzoxadiazole] | 1 to 20 µM | 1 to 20 µM | – |
| CCOC(=O)c1cc(C#N)c(C)nc1N1CCN(c2ccc([N+](=O)[O-])c3nonc23)CC1 [compound 153, ethyl 5-cyano-6-methyl-2-[4-(7-nitro-2,1,3-benzoxadiazol-4-yl)piperazin-1-yl]nicotinate] | ≥ 20 µM | ≥ 20 µM | – |
| O=[N+]([O-])c1ccc(Sc2nc3ccccc3s2)c2nonc12 [compound 158, 4-(1,3-benzothiazol-2-ylthio)-7-nitro-2,1,3-benzoxadiazole] | 1 to 20 µM | 1 to 20 µM | – |
| O=[N+]([O-])c1ccc(N2CCC(O)(c3ccc(Cl)cc3)CC2)c2nonc12 [compound 159, 4-(4-chlorophenyl)-1-(7-nitro-2,1,3-benzoxadiazol-4-yl)piperidin-4-ol] | 1 to 20 µM | ≥ 20 µM | – |
| CC1CC(C)CN(S(=O)(=O)c2ccc(Cl)c3nonc23)C1 (stereo not drawn) [compound 192, 4-chloro-7-[(3,5-dimethylpiperidin-1-yl)sulfonyl]-2,1,3-benzoxadiazole] | – | – | ≥ 20 µM |
| N#CC1(c2ccccc2)CCN(S(=O)(=O)c2ccc(O)c3nonc23)CC1 [compound 199, 1-[(7-hydroxy-2,1,3-benzoxadiazol-4-yl)sulfonyl]-4-phenylpiperidine-4-carbonitrile] | – | – | ≥ 20 µM |
| N#Cc1ccc(N2CCN(S(=O)(=O)c3c(Cl)ccc4nonc34)CC2)nc1 [compound 209, 6-{4-[(5-chloro-2,1,3-benzoxadiazol-4-yl)sulfonyl]piperazin-1-yl}nicotinonitrile] | – | – | ≥ 20 µM |
| CC(=O)N1CCN(S(=O)(=O)c2c(Sc3cccc4cccnc34)ccc3nonc23)CC1 [compound 214, 8-({4-[(4-acetylpiperazin-1-yl)sulfonyl]-2,1,3-benzoxadiazol-5-yl}thio)quinoline] | – | – | ≥ 20 µM |
| O=S(=O)(c1ccc(Sc2ccc(O)cc2)c2nonc12)N1CCC(Oc2ncccn2)CC1 [compound 226, 4-[(7-{[4-(pyrimidin-2-yloxy)piperidin-1-yl]sulfonyl}-2,1,3-benzaxadiazol-4-yl)thio]phenol] | – | – | ≥ 20 µM |
| O=S(=O)(Nc1ccc(F)c(F)c1)c1ccc(Cl)c2nonc12 [compound 262, 7-chloro-N-(3,4-difluorophenyl)-2,1,3-benzoxadiazole-4-sulfonamide] | – | – | ≥ 20 µM |
| O=S(=O)(Nc1cccc(F)c1)c1ccc(Cl)c2nonc12 [compound 263, 7-chloro-N-(3-fluorophenyl)-2,1,3-benzoxadiazole-4-sulfonamide] | – | – | ≥ 20 µM |
| Cc1cc(C)cc(-c2cccc3nonc23)c1 [compound 285, 4-(3,5-Dimethylphenyl)-2,1,3-benzoxadiazole] | – | – | ≥ 20 µM |
| O=[N+]([O-])c1ccc(N2CCN(c3ncc(C(F)(F)F)cc3Cl)CC2)c2nonc12 [compound 315, 4-{4-[3-chloro-5-(trifluoromethyl)pyrindin-2-yl]piperazin-1-yl}-7-nitro-2,1,3-benzoxadiazole] | 1 to 20 µM | ≥ 20 µM | – |
